According to patent publication US20230399411A1, “SPECIFIC ANTIBODY-DRUG-CONJUGATES (ADCS) WITH KSP INHIBITORS AND ANTI-CD123-ANTIBODIES” (Bayer Pharma Aktiengesellschaft, priority 2016, published 2023):

How the values were obtained:
NCI-H292 cells = experiment: MTT assay, cytotoxicity of metabolites; assay type: cell-based; conditions: Homo sapiens, 96 h incubation
Protocol: The analysis of the cytotoxic effects of the anti-CD123 ADCs and the corresponding metabolites was carried out with various cell lines:
NCI-H292: human mucoepidermoid lung carcinoma cells, ATCC-CRL-1848, standard medium: RPMI 1640 (Biochrom; #FG1215, stab. glutamine)+10% FCS (Biochrom; #S0415).
The cells were cultivated according to the standard method using the growth media listed under C-1. The test is carried out by detaching the cells with a solution of Accutase in PBS (Biochrom AG #L2143; in case of adherent cell), pelleting, resuspending in culture medium, counting and sowing into a 96-well culture plate with white bottom (Costar #3610) (NCI H292: 2500 cells/well; MOLM-13: 2000 cells/well; THP-1: 8000 cells/well; NB4: 7000 cells/well; KG-1: 5000 cells/well, MV-4-11: 5000 cells/well in a total volume of 100 μl). The cells were then incubated in an incubator at 37° C. and 5% carbon dioxide. After 6 h or 48 h (adherent cells) the medium was replaced. […] After 96 h, the cell proliferation was detected using the MTT assay (ATCC, Manassas, Virginia, USA, catalogue No. 30-1010K). […] The dye formed was detected at 570 nm (Infinite M1000 pro, Tecan). The measured data were used to calculate the IC50 of the growth inhibition using the DRC (dose response curve). […]

[1] = Caco-2 flux assay for cell permeability; assay type: in vitro ADME; conditions: human; for Papp B→A at 2 h: Caco-2, 2 hours
Protocol: The cell permeability of a substance can be investigated by means of in vitro testing in a flux assay using Caco-2 cells [M. D. Troutman and D. R. Thakker, Pharm. Res. 20 (8), 1210-1224 (2003)]. For this purpose, the cells were cultured for 15-16 days on 24-well filter plates. For the determination of permeation, the respective test substance was applied in a HEPES buffer to the cells either apically (A) or basally (B) and incubated for 2 hours. After 0 hours and after 2 hours, samples were taken from the cis and trans compartments. The samples were separated by HPLC (Agilent 1200, Böblingen, Germany) using reverse phase columns. The HPLC system was coupled via a Turbo Ion Spray Interface to a Triple Quadropol mass spectrometer API 4000 (AB SCIEX Deutschland GmbH, Darmstadt, Germany). The permeability was evaluated on the basis of a Papp value, which was calculated using the formula published by Schwab et al. [D. Schwab et al., J. Med. Chem. 46, 1716-1725 (2003)]. […] Of critical importance for toxophores which are released intracellularly is the permeability from B to A [Papp (B-A)] and the ratio of Papp (B-A) to Papp (A-B) (efflux ratio): the lower this permeability, the slower the active and passive transport processes of the substance through the monolayer of Caco-2 cells.

Row | Structure (SMILES) | IC50 (NCI-H292 cells) [nM] | Papp B→A at 2 h [1] [×10⁻⁶ cm/s] | efflux ratio at 2 h ([1]; Caco-2, Papp (B-A) to Papp (A-B))
1 | CC(C)(C)[C@H](c1cc(-c2cc(F)ccc2F)cn1Cc1ccccc1)N(CCCN)C(=O)CSC[C@H](NC(=O)CCOCCOCCOCCOCCNC(=O)CNC(=O)CC(SC[C@H](N)C(=O)O)C(=O)O)C(=O)O.O=C(O)C(F)(F)F.O=C(O)C(F)(F)F (stereo partly drawn) [Example M20, (1R,4R,27R,33R)-1-Amino-32-(3-aminopropyl)-33-[1-benzyl-4-(2,5-difluorophenyl)-1H-pyrrol-2-yl]-34,34-dimethyl-6,9,25,31-tetraoxo-13,16,19,22-tetraoxa-3,29-dithia-7,10,26,32-tetraazapentatriacontane-1,4,27-tricarboxylic acid/trifluoroacetic acid (1:2)] | 149 | 0.089 | 
2 | CC(C)(C)[C@H](c1cc(-c2cc(F)ccc2F)cn1Cc1ccccc1)N(CCCN)C(=O)CSC[C@H](NC(=O)CCOCCOCCOCCOCCNC(=O)CNC(=O)C(CC(=O)O)SC[C@H](N)C(=O)O)C(=O)O.O=C(O)C(F)(F)F.O=C(O)C(F)(F)F (stereo partly drawn) [Example M21, (2R,24S,27R)-27-Amino-2-[({2-[(3-aminopropyl){(1R)-1-[1-benzyl-4-(2,5-difluorophenyl)-1H-pyrrol-2-yl]-2,2-dimethylpropyl}amino]-2-oxoethyl}sulphanyl)methyl]-24-(carboxymethyl)-4,20,23-trioxo-7,10,13,16-tetraoxa-25-thia-3,19,22-triazaoctacosane-1,28-dioic acid/trifluoroacetic acid (1:2)] |  | 0.05 | 1.5
